According to patent publication US9315522B2, “Antibacterial compounds” (JANSSEN SCIENCES IRELAND UC, priority 2012, dated 2016):
≈ marks a conversion by molar mass, not a printed value. Where “and” joins values, the source holds several entries; their conditions need not be identical. Equal entries are not always repeated.

Test system: Staphylococcus aureus ATCC 29213
Experiment: Antibacterial susceptibility testing, IC90 determination (STA)
Assay type: cell-based
Details: Staphylococcus aureus, ATCC29213, Staphylococcus aureus ATCC 29213, broth microdilution, resazurin; read-out: STA (361.159) IC90
Procedure: (§1) The following bacteria were used: Staphylococcus aureus ATCC 29213, methicillin-resistant Staphylococcus aureus (MRSA) ATCC 700788 and Escherichia coli ATCC 35218. The bacteria used in this study were grown overnight in flasks containing 100 ml Mueller-Hinton broth (Difco cat. nr. 0757-17) in sterile de-ionized water, with shaking, at 37° C. Stocks were store at −70° C. until use.
(§2) Bacteria were incubated on a tryptic soy agar plate containing 5% sheep blood (Becton Dickinson cat. nr. 254053) for 18-24 hours at 35° C. in aerobic conditions (first passage). For the second passage, fresh Mueller-Hinton broth is inoculated with 5-10 colonies and grown overnight at 35° C. until turbidity (reaching log-phase) in aerobic conditions is reached. The bacterial suspension is then adjusted to 0.5 McFarland density and further diluted 1:100 in Mueller Hinton broth medium. This is used as inoculum.
The result(s) are depicted the table below (for STA ATCC 29213).
(§3) MIC assays were performed by the broth microdilution method in a 96-well format (flat-bottom microtitre plates) with a final volume of 0.1 ml Mueller Hinton broth containing two-fold serial dilutions of compounds and inoculated with 5×10^5 CFU/ml of bacteria (standard inoculum size according to CLSI guidelines). Inhibitors are typically varied over the range of 63 to 0.49 μM. The final DMSO concentration in the assay was 1.25% (maximum tolerable DMSO concentration=6%). In the assays where the effect of human serum on the activity of the compounds against S. aureus was tested, human serum was added at a final concentration of 10%. The plates were incubated at 35° C. for 16-20 hours. At the end of incubation the bacterial growth was quantified fluorometrically. For this, resazurin was added to all wells and the plates were re-incubated. The incubation time is dependent on the type of bacteria. A change in color from blue to pink indicated the growth of bacteria. The fluorescence was read in computer-controlled fluorometer (Fluoroskan Ascent FL, Labsystems) at an excitation wavelength 540 nm and an emission wavelength of 590 nm. The % growth inhibition achieved by the compounds was calculated according to standard methods. The IC90 (expressed in μg/ml) was defined as the 90% inhibitory concentration for bacterial growth. A panel of reference compounds were simultaneously tested for QC approval.
Compound `O=C1Nc2ncc(/C=C/C(=O)N3CC4C=C(c5ccsc5)CC4C3)cc2CO1` (centres unmarked) [compound 35] has an IC90 of 0.16 µg/mL (≈ 0.407 µM).
For `O=C1COc2cc(/C=C/C(=O)N3CC4C=C(c5ccncc5)CC4C3)cnc2N1` (centres unmarked) [compound 36], the IC90 was 0.16 µg/mL (≈ 0.412 µM).
`O=C1COCc2cc(/C=C/C(=O)N3CC4C=C(c5ccccc5)CC4C3)cnc2N1` (centres unmarked) [compound 39] showed an IC90 of under 0.19 µg/mL.
Compound `O=C1COCc2cc(/C=C/C(=O)N3CC4C=C(c5ccsc5)CC4C3)cnc2N1` (centres unmarked) [compound 41] has an IC90 of under 0.2 µg/mL.
In the case of `O=C1COCc2cc(/C=C/C(=O)N3CC4C=C(c5nccs5)CC4C3)cnc2N1` (centres unmarked) [compound 49], the IC90 is reported as 0.25 µg/mL (≈ 0.612 µM).
Compound `CN1CC(=O)Nc2ncc(/C=C/C(=O)N3CC4C=C(c5ccccc5)CC4C3)cc2C1` (centres unmarked) [compound 50] has an IC90 of 0.35 µg/mL (≈ 0.844 µM).
For `O=C1Nc2ncc(/C=C/C(=O)N3CC4C=C(c5ccccc5)CC4C3)cc2CO1` (centres unmarked) [compound 51], the IC90 was 0.35 µg/mL (≈ 0.903 µM).

Target: T1, S. aureus ATCC 29213 FabI (Staphylococcus aureus, UniProt Q6GI75)
T1 sequence (Q6GI75 1-256): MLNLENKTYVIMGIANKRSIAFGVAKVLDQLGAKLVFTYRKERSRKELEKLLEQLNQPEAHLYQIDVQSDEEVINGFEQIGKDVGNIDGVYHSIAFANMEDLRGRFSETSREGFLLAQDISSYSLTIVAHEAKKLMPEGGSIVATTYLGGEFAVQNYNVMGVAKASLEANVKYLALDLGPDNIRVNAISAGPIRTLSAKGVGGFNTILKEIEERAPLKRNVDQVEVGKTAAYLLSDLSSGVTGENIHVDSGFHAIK
Experiment: Staphylococcus aureus FabI enzyme inhibition assay
Assay type: biochemical
Details: read-out: FabI (300.235) IC50 (converted)
Procedure: Y.1 FabI Enzyme Inhibition: Staphylococcus aureus FabI Enzyme Inhibition Assay
FabI enzyme inhibition assays were carried out in half-area, 384-well microtitre plates. Compounds were evaluated in 40-μl assay mixtures containing 100 mM NaADA, pH 6.5 (ADA=N-[2-acetamido]-2iminodiacetic acid), 250 μM crotonoyl-CoA, 625 μM NADH and 50 μg/ml S. aureus ATCC 29213 FabI. Inhibitors were typically varied over the range of 50 to 0.39 μM. The reaction mixtures were incubated for 30 minutes at room temperature and the reaction was stopped by adding 200 mM Tris buffer (pH 9.0) to create a pH-shift. The consumption of NADH was monitored by measuring the change in absorbance at […]. By comparing sample readings to those of negative (absence of compound) and positive (absence of enzyme) controls, the percent inhibition of enzymatic activity of the compounds was determined A best-fit curve is fitted by a minimum of squares method. From this an IC50-value (expressed in μg/ml), resulting in 50% inhibition of enzymatic activity, was obtained.
`O=C1Nc2ncc(/C=C/C(=O)N3CC4C=C(c5ccsc5)CC4C3)cc2CO1` (centres unmarked) [compound 35] gave an IC50 of 0.839 µM.
In the case of `O=C1COc2cc(/C=C/C(=O)N3CC4C=C(c5ccncc5)CC4C3)cnc2N1` (centres unmarked) [compound 36], the IC50 is reported as 1.13 µM.
`O=C1COCc2cc(/C=C/C(=O)N3CC4C=C(c5ccccc5)CC4C3)cnc2N1` (centres unmarked) [compound 39] gave an IC50 of about 1.62 µM.
In the case of `O=C1COCc2cc(/C=C/C(=O)N3CC4C=C(c5ccsc5)CC4C3)cnc2N1` (centres unmarked) [compound 41], the IC50 is reported as 1.03 µM.
For `O=C1COCc2cc(/C=C/C(=O)N3CC4C=C(c5nccs5)CC4C3)cnc2N1` (centres unmarked) [compound 49], the IC50 was about 0.93 µM.
`CN1CC(=O)Nc2ncc(/C=C/C(=O)N3CC4C=C(c5ccccc5)CC4C3)cc2C1` (centres unmarked) [compound 50] gave an IC50 of 0.965 µM.
Compound `O=C1Nc2ncc(/C=C/C(=O)N3CC4C=C(c5ccccc5)CC4C3)cc2CO1` (centres unmarked) [compound 51] has an IC50 of 0.903 µM.

Test system: S. aureus
Experiment: Antibacterial susceptibility testing, IC90 determination with 10% human serum (STA + 10% HS)
Assay type: cell-based, Staphylococcus aureus
Details: Staphylococcus aureus, human serum at final concentration of 10%, read-out: STA + 10% HS (361.169) IC90
Procedure: as §1, §2, §3
The results are depicted in the table(s) below (STA+10% HS).
Work on `O=C1Nc2ncc(/C=C/C(=O)N3CC4C=C(c5ccsc5)CC4C3)cc2CO1` (centres unmarked) [compound 35] yielded an IC90 of 0.37 µg/mL.
In the case of `O=C1COc2cc(/C=C/C(=O)N3CC4C=C(c5ccncc5)CC4C3)cnc2N1` (centres unmarked) [compound 36], the IC90 is reported as under 0.08 µg/mL.
In the case of `O=C1COCc2cc(/C=C/C(=O)N3CC4C=C(c5ccccc5)CC4C3)cnc2N1` (centres unmarked) [compound 39], the IC90 is reported as 0.35 µg/mL.
In the case of `O=C1COCc2cc(/C=C/C(=O)N3CC4C=C(c5ccsc5)CC4C3)cnc2N1` (centres unmarked) [compound 41], the IC90 is reported as 0.23 µg/mL.
`O=C1COCc2cc(/C=C/C(=O)N3CC4C=C(c5nccs5)CC4C3)cnc2N1` (centres unmarked) [compound 49] showed an IC90 of 0.24 µg/mL.
`CN1CC(=O)Nc2ncc(/C=C/C(=O)N3CC4C=C(c5ccccc5)CC4C3)cc2C1` (centres unmarked) [compound 50] gave an IC90 of 0.4 µg/mL.
`O=C1Nc2ncc(/C=C/C(=O)N3CC4C=C(c5ccccc5)CC4C3)cc2CO1` (centres unmarked) [compound 51] gave an IC90 of 0.71 µg/mL.

Test system: not given
Experiment: not given
Details: not given
Work on `O=C1Nc2ncc(/C=C/C(=O)N3CC4C=C(c5ccsc5)CC4C3)cc2CO1` (centres unmarked) [compound 35] yielded a melting point of over 250 °C.
With `O=C1COc2cc(/C=C/C(=O)N3CC4C=C(c5ccncc5)CC4C3)cnc2N1` (centres unmarked) [compound 36] the melting point was over 260 °C.
With `O=C1COCc2cc(/C=C/C(=O)N3CC4C=C(c5ccccc5)CC4C3)cnc2N1` (centres unmarked) [compound 39] the melting point was 266.57 °C and 266.6 °C.
In the case of `O=C1COCc2cc(/C=C/C(=O)N3CC4C=C(c5ccsc5)CC4C3)cnc2N1` (centres unmarked) [compound 41], the melting point is reported as 152 °C.
Compound `O=C1COCc2cc(/C=C/C(=O)N3CC4C=C(c5nccs5)CC4C3)cnc2N1` (centres unmarked) [compound 49] has a melting point of 260.34 °C.
`CN1CC(=O)Nc2ncc(/C=C/C(=O)N3CC4C=C(c5ccccc5)CC4C3)cc2C1` (centres unmarked) [compound 50] showed a melting point of 202 °C.
`O=C1Nc2ncc(/C=C/C(=O)N3CC4C=C(c5ccccc5)CC4C3)cc2CO1` (centres unmarked) [compound 51] showed a melting point of over 250 °C.

Test system: not listed separately
Experiment: Cytotoxicity MTT assay (HELAM)
Assay type: cell-based, Human
Details: human, HelaM cells, read-out: HELAM (222.125) CC50
Procedure: Cytotoxicity of the compounds was evaluated using the MTT assay. Human HelaM cells grown in 96-well plates were exposed to serial dilutions of the tested compounds (final volume of 0.2 ml) and incubated for 72 hours at 37° C. and 5% CO2. Inhibitors are typically varied over the range of 25 to 0.8 μM. The final DMSO concentration in the assay is 0.5%. MTT (3-(4,5-Dimethylthiazol-2-yl)-2,5-diphenyltetrazolium bromide, a tetrazole) was added and reduced to purple formazan only in living cells. Solubilization of the formazan crystals was achieved by adding 100 μl 2-propanol. Cell viability was determined by measuring the absorbance of the reduced formazan, giving a purple color, at 540 nm and 690 nm. The absorbance measured at 690 nm was automatically subtracted from the absorbance at 540 nm, to eliminate the effects of non-specific absorption. The percent cytotoxicity achieved by the compounds was calculated according to standard methods. Cytotoxicity is reported as CC50, the concentration that causes a 50% reduction in cell viability.
The results are depicted in the table(s) below (HELAM).
For `O=C1Nc2ncc(/C=C/C(=O)N3CC4C=C(c5ccsc5)CC4C3)cc2CO1` (centres unmarked) [compound 35], the CC50 at 72 h was over 3.93 µg/mL.
In the case of `O=C1COc2cc(/C=C/C(=O)N3CC4C=C(c5ccncc5)CC4C3)cnc2N1` (centres unmarked) [compound 36], the CC50 at 72 h is reported as over 3.88 µg/mL.
Compound `O=C1COCc2cc(/C=C/C(=O)N3CC4C=C(c5ccccc5)CC4C3)cnc2N1` (centres unmarked) [compound 39] has a CC50 at 72 h of over 10.1 µg/mL.
`O=C1COCc2cc(/C=C/C(=O)N3CC4C=C(c5ccsc5)CC4C3)cnc2N1` (centres unmarked) [compound 41] showed a CC50 at 72 h of over 10.2 µg/mL.
For `O=C1COCc2cc(/C=C/C(=O)N3CC4C=C(c5nccs5)CC4C3)cnc2N1` (centres unmarked) [compound 49], the CC50 at 72 h was over 10.3 µg/mL.
Compound `CN1CC(=O)Nc2ncc(/C=C/C(=O)N3CC4C=C(c5ccccc5)CC4C3)cc2C1` (centres unmarked) [compound 50] has a CC50 at 72 h of over 20.8 µg/mL.
Work on `O=C1Nc2ncc(/C=C/C(=O)N3CC4C=C(c5ccccc5)CC4C3)cc2CO1` (centres unmarked) [compound 51] yielded a CC50 at 72 h of over 9.73 µg/mL.
